Like-named read-outs stand apart in the source and are kept apart here.
Target: T1, Syk (Homo sapiens, UniProt P43405)
T1 construct: purchased Carna Biosciences
Experiment: Syk HTRF assay
Type: biochemical
Outline: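 Read-out is the 665 nm/615 nm time-resolved fluorescence ratio after EDTA stop and Eu-anti-phosphotyrosine plus streptavidin-DyLight 647 detection. Reaction ran 1 h at room temperature with start mix of 87.5 μM ATP and 80 nM substrate peptide in pH 7.6 HEPES/MgCl2 buffer.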

[1] = activity levels A-D, read-out: Activity Level (IC50 in the Syk HTRF assay)
[2] = IC50 activity level, read-out: Activity Level
[3] = read-out: Activity Level (Syk HTRF assay IC50)

| IC50 [1] | IC50 [2] | other results | Compound |
| --- | --- | --- | --- |
| 0.005 to 250 nM |  |  | O[C@H]1CC[C@@H](Nc2cccc3nc(Nc4cnc5[nH]ccc5c4)nn23)CC1 [Example 297, cis-4-(2-(1H-pyrrolo[2,3-b]pyridin-5-ylamino)-[1,2,4]triazolo[1,5-a]pyridin-5-ylamino)cyclohexanol] |
|  | 250 to 500 nM |  | O[C@@H]1CCC(Nc2cccc3nc(Nc4ccc(C(F)(F)F)cc4)nn23)C1 (stereo in doubt) [Example 420, (1R,3R)-3-(2-(4-(trifluoromethyl)phenylamino)-[1,2,4]triazolo[1,5-a]pyridin-5-ylamino)cyclopentanol] |
|  | 1000 to 10000 nM |  | c1cc(NC2CCCNC2)n2nc(Nc3ccc4c(c3)CNC4)nc2c1 (stereo in doubt) [Example 448, (R)-N^2-(isoindolin-5-yl)-N^5-(piperidin-3-yl)-[1,2,4]triazolo[1,5-a]pyridin-2,5-diamine] |
|  |  | IC50 [3]: 0.005 to 250 nM | CC1(C)C(=O)Nc2cc(Nc3nc4cccc(N[C@@H]5CCCNC5)n4n3)ccc21 [compound 131, (R)-3,3-dimethyl-6-(5-(piperidin-3-ylamino)-[1,2,4]triazolo[1,5-a]pyridin-2-ylamino)indolin-2-one] |
|  |  | IC50 [3]: 0.005 to 250 nM | Cc1nn(CCO)c2cc(Nc3nc4cccc(N[C@H]5CC[C@@H](O)CC5)n4n3)ccc12 [Example 191, cis-4-(2-(1-(2-hydroxyethyl)-3-methyl-1H-indazol-6-ylamino)-[1,2,4]triazolo[1,5-a]pyridin-5-ylamino)cyclohexanol] |
| 0.005 to 250 nM |  |  | CN(C)c1ccc(Nc2nc3cccc(-c4ccc5nc(CO)[nH]c5c4)n3n2)cn1 [Example 298, (6-(2-(6-(dimethylamino)pyridin-3-ylamino)-[1,2,4]triazolo[1,5-a]pyridin-5-yl)-1H-benzo[d]imidazol-2-yl)methanol] |
|  | 0.005 to 250 nM |  | Fc1ccc(Nc2nc3cccc(N[C@H]4CCCNC4)n3n2)cc1 [Example 465, (S)-N^2-(4-fluorophenyl)-N^5-(piperidin-3-yl)-[1,2,4]triazolo[1,5-a]pyridine-2,5-diamine] |
| 250 to 500 nM |  |  | Cc1cc(Nc2nc3cccc(CN4CCNC(=O)C4)n3n2)ccc1F [Example 228, 4-((2-(4-fluoro-3-methylphenylamino)-[1,2,4]triazolo[1,5-a]pyridin-5-yl)methyl)piperazin-2-one] |
|  | 0.005 to 250 nM |  | FC(F)(F)c1n[nH]c2cc(Nc3nc4cccc(CC5CCOCC5)n4n3)ccc12 [Example 540, 5-((tetrahydro-2H-pyran-4-yl)methyl)-N-(3-(trifluoromethyl)-1H-indazol-6-yl)-[1,2,4]triazolo[1,5-a]pyridin-2-amine] |
|  | 0.005 to 250 nM |  | NC(=O)c1ccc(Nc2nc3cccc(N[C@H]4CC[C@@H](N)CC4)n3n2)cc1 [Example 493, cis-4-(5-(4-aminocyclohexylamino)-[1,2,4]triazolo[1,5-a]pyridin-2-ylamino)benzamide] |
|  | 0.005 to 250 nM |  | c1cncc(Nc2nc3cccc(NC4CCCNC4)n3n2)c1 (stereo in doubt) [Example 433, (S)-N^5-(piperidin-3-yl)-N^2-(pyridin-3-yl)-[1,2,4]triazolo[1,5-a]pyridin-2,5-diamine] |
|  | 1000 to 10000 nM |  | Oc1cc(Nc2cccc3nc(Nc4ccc(C(F)(F)F)cc4)nn23)ccn1 [Example 415, 4-(2-(4-(trifluoromethyl)phenylamino)-[1,2,4]triazolo[1,5-a]pyridin-5-ylamino)pyridin-2-ol] |
|  |  | IC50 [3]: 500 to 1000 nM | CN1Cc2cc(Nc3nc4cccc(CC5CCOCC5)n4n3)ccc2C1=O [Example 145, 2-methyl-5-(5-((tetrahydro-2H-pyran-4-yl)methyl)-[1,2,4]triazolo[1,5-a]pyridin-2-ylamino)isoinoldin-1-one] |
|  |  | IC50 [3]: 250 to 500 nM | CNC(=O)c1ccc(Nc2nc3cccc(-c4cccc(F)c4)n3n2)cc1 [compound 12, 4-(5-(3-fluorophenyl)-[1,2,4]triazolo[1,5-a]pyridin-2-ylamino)-N-methylbenzamide] |
| 1000 to 10000 nM |  |  | OC[C@H]1CCCC[C@H]1Nc1cccc2nc(Nc3ccc(C(F)(F)F)cc3)nn12 (stereo in doubt) [Example 356, (1S,2R)-(2-(2-(4-(trifluoromethyl)phenylamino)-[1,2,4]triazolo[1,5-a]pyridin-5-ylamino)cyclohexyl)methanol] |
|  | 1000 to 10000 nM |  | c1cncc(Nc2nc3cccc(N[C@@H]4CCCNC4)n3n2)c1 [Example 434, (R)-N^5-(piperidin-3-yl)-N^2-(pyridin-3-yl)-[1,2,4]triazolo[1,5-a]pyridine-2,5-diamine] |
| 0.005 to 250 nM |  |  | O[C@@H]1CCC[C@@H](Nc2cccc3nc(Nc4ccc(C(F)(F)F)cc4)nn23)C1 (single isomer, unassigned; enantiomer 1) [Example 225, trans-3-(2-(4-(trifluoromethyl)phenylamino)-[1,2,4]triazolo[1,5-a]pyridin-5-ylamino)cyclohexanol (enantiomer 1)] |
|  | 1000 to 10000 nM |  | c1ccc(Nc2nc3cccc(-c4ccccn4)n3n2)cc1 [Example 488, N-phenyl-5-(pyridin-2-yl)-[1,2,4]triazolo[1,5-a]pyridin-2-amine] |
|  | 500 to 1000 nM |  | Cc1cc(-c2cccc3nc(Nc4ccccc4)nn23)no1 [Example 473, 5-(5-methylisoxazol-3-yl)-N-phenyl-[1,2,4]triazolo[1,5-a]pyridin-2-amine] |
| 1000 to 10000 nM |  |  | CC(C)(CO)Nc1cccc2nc(Nc3ccc(C(F)(F)F)cc3)nn12 [Example 358, 2-methyl-2-(2-(4-(trifluoromethyl)phenylamino)-[1,2,4]triazolo[1,5-a]pyridin-5-ylamino)propan-1-ol] |
|  | 0.005 to 250 nM |  | CC1(C)C(=O)Nc2cc(Nc3nc4cccc(N5CCOCC5)n4n3)ccc21 [Example 571, 3,3-dimethyl-6-(5-morpholino-[1,2,4]triazolo[1,5-a]pyridin-2-ylamino)indolin-2-one] |
|  | 1000 to 10000 nM |  | c1ccc(Nc2nc3cccc(C4CCCCC4)n3n2)cc1 [Example 525, 5-cyclohexyl-N-phenyl-[1,2,4]triazolo[1,5-a]pyridin-2-amine] |
| 0.005 to 250 nM |  |  | O[C@H]1CC[C@@H](Nc2cccc3nc(Nc4cccc(Cl)c4)nn23)CC1 [Example 354, cis-4-(2-(3-chlorophenylamino)-[1,2,4]triazolo[1,5-a]pyridin-5-ylamino)cyclohexanol] |
| 500 to 1000 nM |  |  | N#Cc1cc(Nc2nc3cccc(N[C@H]4CC[C@@H](O)CC4)n3n2)ccn1 [Example 256, cis-4-(5-(4-hydroxycyclohexylamino)-[1,2,4]triazolo[1,5-a]pyridin-2-ylamino)picolinonitrile] |
| 0.005 to 250 nM |  |  | O[C@H]1CC[C@@H](Nc2cccc3nc(Nc4ccc(F)cc4)nn23)CC1 [Example 319, cis-4-(2-(4-fluorophenylamino)-[1,2,4]triazolo[1,5-a]pyridin-5-ylamino)cyclohexanol] |
|  | 0.005 to 250 nM |  | CN(C)Cc1nc2cc(-c3cccc4nc(Nc5ccccc5)nn34)ccc2[nH]1 [Example 486, 5-(2-((dimethylamino)methyl)-1H-benzo[d]imidazol-5-yl)-N-phenyl-[1,2,4]triazolo[1,5-a]pyridin-2-amine] |
|  | 0.005 to 250 nM |  | CNc1nc2cc(-c3cccc4nc(Nc5ccccc5)nn34)ccc2[nH]1 [Example 481, 5-(2-(methylamino)-1H-benzo[d]imidazol-5-yl)-N-phenyl-[1,2,4]triazolo[1,5-a]pyridin-2-amine] |
| 0.005 to 250 nM |  |  | OC1CCC[C@@H]1Nc1cccc2nc(Nc3ccc(C(F)(F)F)cc3)nn12 (stereo in doubt) [Example 374, (1S,2S)-2-(2-(4-(trifluoromethyl)phenylamino)-[1,2,4]triazolo[1,5-a]pyridin-5-ylamino)cyclopentanol] |
